According to paper PMC9865193, “Improvement of the Chemical Reactivity of Michael Acceptor of Ethacrynic Acid Correlates with Antiproliferative Activities” (Molecules, 2023):

Experiments:
HL60 cells = assay: MTS cell growth inhibition assay, HL60; assay type: cell-based, human; conditions: for IC50: Homo sapiens, HL-60, read-out: IC50 antiproliferative activity against HL60; for Selectivity index (SI) MRC5/HL60: ratio of IC50 MRC5/IC50 HL60
Excerpt: Based on a multiple target assay, all the prepared compounds (6–10) were first evaluated against HL60 leukemia cells to assess their in vitro antiproliferative activities. As mentioned in the Table 1, the obtained results were expressed as half-maximal inhibitory concentration (IC50) values with the average of at least three independent experiments and are compared to EA.
(§1) All cancer cell lines (HCT116, A549, MCF7, PC3, U87-MG, SKOV3, and MRC5) were obtained from the European Collection of Cell Culture (ECACC, Salisbury, UK) or from the American Type Culture Collection (Rockville, MD, USA) and were cultured according to the supplier’s instructions. Human HCT-116 colorectal carcinoma, MCF7 breast adenocarcinoma, PC3 prostate adenocarcinoma, A549 lung carcinoma, and SK-OV-3 ovary carcinoma were grown in Gibco McCoy’s 5A supplemented with 10% fetal calf serum (FCS) and 1% glutamine. HL60 myelogenous leukemia cells were grown in RPMI 1640 supplemented with 10% fetal calf serum (FCS) and 1% glutamine. U87-MG glioblastoma and human MRC-5 cells were grown in Gibco medium DMEM supplemented with 10% fetal calf serum (FCS) and 1% glutamine. Cells were maintained at 37 °C in a humidified atmosphere containing 5% CO2. Cell growth inhibition was determined by an MTS assay according to the manufacturer’s instructions (Promega, Madison, WI, USA). Briefly, the cells were seeded in 96-well plates (2.5 × 10^3 cells/well) containing 100 μL of growth medium. After 24 h of culture, the cells were treated with the tested compounds at 10 different final concentrations. After incubation for 72 h, 20 µL of Cell Titer 96®AQueous. One Solution Reagent was added for 2 h before recording absorbance at 490nm with a spectrophotometric plate reader. The concentration–response curves were generated with Graph Prism software and the 50% inhibition concentration values (IC50) were calculated from polynomial curves (four or five-parameter logistic equations).

A549 cells = assay: MTS cell growth inhibition assay, A549; assay type: cell-based, human; conditions: for IC50: Homo sapiens, A549, 72 h of exposure, read-out: IC50 antiproliferative activity A549; for Selectivity index (SI) MRC5/A549: ratio of IC50 MRC5/IC50 A549
Protocol: (§2) Moreover, in order to evaluate the safety index, their effect on the proliferation of human lung fibroblasts (MCR5) as a normal cell line was also studied.
(§3) All cancer cell lines (HCT116, A549, MCF7, PC3, U87-MG, SKOV3, and MRC5) were obtained from the European Collection of Cell Culture (ECACC, Salisbury, UK) or from the American Type Culture Collection (Rockville, MD, USA) and were cultured according to the supplier’s instructions. […] U87-MG glioblastoma and human MRC-5 cells were grown in Gibco medium DMEM supplemented with 10% fetal calf serum (FCS) and 1% glutamine. Cells were maintained at 37 °C in a humidified atmosphere containing 5% CO2. Cell growth inhibition was determined by an MTS assay according to the manufacturer’s instructions (Promega, Madison, WI, USA). Briefly, the cells were seeded in 96-well plates (2.5 × 10^3 cells/well) containing 100 μL of growth medium. After 24 h of culture, the cells were treated with the tested compounds at 10 different final concentrations. After incubation for 72 h, 20 µL of Cell Titer 96®AQueous. One Solution Reagent was added for 2 h before recording absorbance at 490nm with a spectrophotometric plate reader.

MCF7 cells = assay: MTS cell growth inhibition assay, MCF7; assay type: cell-based, human; conditions: for IC50: Homo sapiens, MCF7, 72 h of exposure, read-out: IC50 antiproliferative activity MCF7; for Selectivity index (SI) MRC5/MCF7: ratio of IC50 MRC5/IC50 MCF7
Protocol: as §2, §3

PC3 cells = assay: MTS cell growth inhibition assay, PC3; assay type: cell-based, human; conditions: for IC50: Homo sapiens, PC-3, PC3, 72 h of exposure, read-out: IC50 antiproliferative activity PC3; for Selectivity index (SI) MRC5/PC3: ratio of IC50 MRC5/IC50 PC3
Protocol: as §2, §1

U87-MG cells = assay: MTS cell growth inhibition assay, U87-MG; assay type: cell-based, human; conditions: for IC50: Homo sapiens, U-87 MG, U87-MG, 72 h of exposure, read-out: IC50 antiproliferative activity U87-MG; for Selectivity index (SI) MRC5/U87-MG: ratio of IC50 MRC5/IC50 U87-MG
Protocol: as §2, §3

SKOV3 cells = assay: MTS cell growth inhibition assay, SKOV3; assay type: cell-based, human; conditions: for IC50: Homo sapiens, SK-OV-3, SKOV3, 72 h of exposure, read-out: IC50 antiproliferative activity SKOV3; for Selectivity index (SI) MRC5/SKOV3: ratio of IC50 MRC5/IC50 SKOV3
Protocol: as §2, §1

HCT116 cells = assay: MTS cell growth inhibition assay, HCT116; assay type: cell-based, human; conditions: for IC50: Homo sapiens, HCT-116, HCT116, 72 h of exposure, read-out: IC50 antiproliferative activity HCT116; for Selectivity index (SI) MRC5/HCT116: ratio of IC50 MRC5/IC50 HCT116
Protocol: as §2, §3

MRC5 cells = assay: MTS cell growth inhibition assay, normal cell line MRC5; assay type: cell-based; conditions: MRC5 normal human lung fibroblasts, 72 h of exposure; read-out: IC50 antiproliferative activity MRC5
Protocol: as §2, §1

C=C(CC)C(=O)c1ccc(OCC(=O)O)cc1O [Compound 6, 2-(3-Hydroxy-4-(2-methylenebutanoyl)phenoxy)acetic acid]
IC50 (HL60 cells; HL60 leukemia cells, 72 h, MTS): > 10000 nM

C=C(CC)C(=O)c1ccc(OCC(=O)NCCCC)cc1O [Compound 7, N-Butyl-2-(3-hydroxy-4-(2-methylenebutanoyl)phenoxy)acetamide]
IC50 (HL60 cells; HL60 leukemia cells, 72 h, MTS): 1700 ± 520 nM | Selectivity index (SI) MRC5/HL60 (HL60 cells): 0.50 | IC50 (A549 cells): 285 ± 67.8 nM | Selectivity index (SI) MRC5/A549 (A549 cells): 2.98 | IC50 (MCF7 cells): 528 ± 16.9 nM | Selectivity index (SI) MRC5/MCF7 (MCF7 cells): 1.60 | IC50 (PC3 cells): 485 ± 20.9 nM | Selectivity index (SI) MRC5/PC3 (PC3 cells): 1.75 | IC50 (U87-MG cells): 1610 ± 355 nM | Selectivity index (SI) MRC5/U87-MG (U87-MG cells): 0.52 | IC50 (SKOV3 cells): 1510 ± 363 nM | Selectivity index (SI) MRC5/SKOV3 (SKOV3 cells): 0.56 | IC50 (HCT116 cells): 920 ± 20 nM | Selectivity index (SI) MRC5/HCT116 (HCT116 cells): 0.93 | IC50 (MRC5 cells): 850 ± 110 nM

C#CCOc1ccc(C(=O)C(=C)CC)c(O)c1 [Compound 8, 1-(2-Hydroxy-4-(prop-2-yn-1-yloxy)phenyl)-2-methylenebutan-1-one]
IC50 (HL60 cells; HL60 leukemia cells, 72 h, MTS): 15 ± 6 nM | Selectivity index (SI) MRC5/HL60 (HL60 cells): 23.33 | IC50 (A549 cells): 41.2 ± 1.88 nM | Selectivity index (SI) MRC5/A549 (A549 cells): 8.49 | IC50 (MCF7 cells): 61.5 ± 0.9 nM | Selectivity index (SI) MRC5/MCF7 (MCF7 cells): 5.69 | IC50 (PC3 cells): 68.7 ± 3.7 nM | Selectivity index (SI) MRC5/PC3 (PC3 cells): 5.09 | IC50 (U87-MG cells): 369 ± 50.1 nM | Selectivity index (SI) MRC5/U87-MG (U87-MG cells): 0.94 | IC50 (SKOV3 cells): 138 ± 53.8 nM | Selectivity index (SI) MRC5/SKOV3 (SKOV3 cells): 2.53 | IC50 (HCT116 cells): 1260 ± 80 nM | Selectivity index (SI) MRC5/HCT116 (HCT116 cells): 0.27 | IC50 (MRC5 cells): 350 ± 40 nM

C=C(CC)C(=O)c1ccc(OCC(=O)NCCCC)c(Cl)c1Cl [Compound 9, N-Butyl-2-(2,3-dichloro-4-(2-methylenebutanoyl)phenoxy)acetamide]
IC50 antiproliferative activity against HL60 (HL60 cells; HL60 leukemia cells, 72 h, MTS): inactive

C#CCOc1ccc(C(=O)C(=C)CC)c(Cl)c1Cl [Compound 10]
IC50 (HL60 cells; HL60 leukemia cells, 72 h, MTS): 580 ± 40 nM

COc1cccc2c1C(=O)c1c(O)c3c(c(O)c1C2=O)C[C@@](O)(C(=O)CO)C[C@@H]3O[C@H]1C[C@H](N)[C@H](O)[C@H](C)O1 [Doxorubicin, doxorubicin, reference compound]
IC50 (A549 cells): 56.6 ± 0.84 nM | IC50 (MCF7 cells): 120 ± 9 nM | IC50 (PC3 cells): 2.09 ± 0.03 nM | IC50 (U87-MG cells): 99.6 ± 2.34 nM | IC50 (HCT116 cells): 90 ± 3 nM | IC50 (MRC5 cells): 39.9 ± 1.22 nM
